This experiment addresses T1, human GPR40 (Homo sapiens, UniProt O14842).
T1 construct: expressed in transfected cells; host or cells: HEK cells stably expressing the aequorin reporter
As to the kind of experiment: Inositol Phosphate Turnover (IP1) Assay 3. Format: cell-based. To be noted: HEK cells stably expressing human GPR40. The method in brief: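 HEK cells stably expressing human GPR40, plated 16 h before, were treated with compound for 60 min at 37 °C in stimulation buffer. IP1 measured by HTRF (665/620 nm ratio) against an IP1 standard curve; activity normalized to a reference compound, EC50 from 4-parameter fit.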

Each structure is given as a SMILES string.

For orientation: EC50 means the concentration needed to bring the measured effect to its halfway point. Lower therefore signals an effect from little substance.

T1 sequence (O14842 whole entry): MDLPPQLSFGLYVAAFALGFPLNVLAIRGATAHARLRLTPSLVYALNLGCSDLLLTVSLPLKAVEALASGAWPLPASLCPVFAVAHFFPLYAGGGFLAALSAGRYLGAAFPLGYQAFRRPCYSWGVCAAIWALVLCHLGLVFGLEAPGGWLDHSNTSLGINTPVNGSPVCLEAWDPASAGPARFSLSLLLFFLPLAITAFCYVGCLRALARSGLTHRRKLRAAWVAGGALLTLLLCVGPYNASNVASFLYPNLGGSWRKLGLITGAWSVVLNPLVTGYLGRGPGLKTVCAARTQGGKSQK

Turning to `COc1cc(-c2ccc(C3CCc4ccc([C@H](C5CC5)[C@H](C)C(=O)O)c(F)c4O3)cc2CN2CCCC2(C)C)c(F)cn1` (single isomer, unassigned) [Example 206], it took 1.3 nM to reach a half-maximal effect (EC50).

As to `COc1cc(-c2ccc(C3CCc4ccc([C@H](C5CC5)[C@H](C)C(=O)O)cc4O3)cc2CN2CCCC23CCC3)c(F)cn1` (stereo partly shown) [Example 264], the EC50 was 0.2 nM.

In turn, `COc1cc(-c2ccc(C3CCc4ccc([C@H](C5CC5)[C@H](C)C(=O)O)cc4O3)cc2CN2[C@H](C)CCC[C@H]2C)ccn1` (stereo partly shown) [Example 240] returned a concentration giving a half-maximal response (EC50) of 1.4 nM.

The compound `CCOc1cc(-c2ccc(C3CCc4ccc([C@H](C5CC5)[C@H](C)C(=O)O)cc4O3)cc2CN2CCCC2)c(F)cn1` (single isomer, unassigned) [Example 173] yielded an EC50 of 50 nM.

Take `COc1cc(-c2ccc(C3CCc4ccc([C@H](C5CC5)[C@H](C)C(=O)O)cc4O3)c(CN3CCCCC3(C)C)c2)ccn1` (mixture of isomers) [Example 117]: the response was half-maximal at 0.6 nM (EC50).

Compound `COc1ccc(F)c(-c2ccc(C3CCc4ccc([C@H](C5CC5)[C@H](C)C(=O)O)cc4O3)cc2CN2CCCCC23CC3)n1` (stereo partly shown) [compound 190] showed an EC50 of 3.9 nM.

`CCN(CC)Cc1cc(C2CCc3ccc([C@H](C4CCC4)[C@H](C)C(=O)O)cc3O2)ccc1-c1cc(OC)ncc1F` (single isomer, unassigned) [Example 99] returned a concentration for a half-maximal effect (EC50) of 0.18 nM.

Turning to `COc1cc(-c2ccc(C3CCc4ccc([C@H](C5CC5)[C@H](C)C(=O)O)cc4O3)c(CN3CCCCC3(C)C)c2)ccn1` (single isomer, unassigned) [Example 117b], the EC50 came to 24 nM.

The compound `COc1cc(-c2ccc(C3CCc4ccc([C@H](C5CC5)[C@H](C)C(=O)O)cc4O3)c(CN3CCCC[C@@H]3C)c2)ccn1` (stereo partly shown) [Example 121] showed a half-maximal effective concentration (EC50) of 0.4 nM.

`COc1cc(-c2ccc(C3CCc4ccc([C@H](C5CC5)[C@H](C)C(=O)O)cc4O3)cc2CN2CCCC2)ccn1` (stereo partly drawn) [Example 175, (2S, 3R)-3-cyclopropyl-3-(2-(4-(2-methoxypyridin-4-yl)-3-(pyrrolidin-1-ylmethyl)phenyl)-chroman-7-yl)-2-methylpropanoic acid] registered an EC50 of 53 nM.

`COc1cc(-c2cc(F)c(C3CCc4ccc([C@H](C5CC5)[C@H](C)C(=O)O)cc4O3)cc2CN(C(C)C)C(C)C)ccn1` (single isomer, unassigned) [Example 183] returned an EC50 of 0.35 nM.

`COc1cc(-c2ccc(C3CCc4ccc([C@H](C5CC5)[C@H](C)C(=O)O)cc4O3)nc2CN2CCCC2)c(F)cn1` (stereo partly shown) [Example 90] gave an EC50 of 9.5 nM.

`COc1cc(-c2ccc(C3CCc4ccc([C@H](C5CC5)[C@H](C)C(=O)O)cc4O3)c(CN(C(C)C)C(C)C)c2)c(F)cn1` (single isomer, unassigned) [Example 126b]: the midpoint of the response, the EC50, lay at 2.7 nM.

`CCC1CCCCN1Cc1cc(C2CCc3ccc([C@H](C4CC4)[C@H](C)C(=O)O)cc3O2)ccc1-c1cc(OC)ncc1F` (single isomer, unassigned) [Example 273a]: the response was half-maximal at 0.08 nM (EC50).

The compound `COc1cc(-c2ccc(C3CCc4ccc([C@H](C5CC5)[C@H](C)C(=O)O)c(F)c4O3)cc2CN2CCCC2(C)C)c(F)cn1` (single isomer, unassigned) [Example 207] returned an EC50 of 1.3 nM.

`COc1cc(-c2ccc(C3CCc4ccc([C@H](C5CC5)[C@H](C)C(=O)O)cc4O3)c(CN3CCCC[C@H]3C)c2)ccn1` (single isomer, unassigned) [Example 120b] gave a concentration giving a half-maximal response (EC50) of 41 nM.

For `COc1cc(-c2ccc(C3CCc4ccc([C@H](C5CC5)[C@H](C)C(=O)O)c(F)c4O3)cc2CN2CCC[C@H]2C)c(F)cn1` (single isomer, unassigned) [Example 210], the half-maximal effective concentration (EC50) was found to be 3.1 nM.

Turning to `CCN(Cc1cc(C2CCc3ccc([C@H](C4CC4)[C@H](C)C(=O)O)cc3O2)ccc1-c1cc(OC)ncc1F)C(C)C` (stereo partly shown) [Example 255], a half-maximal effect (EC50) was put at 0.3 nM.

`CCN(CC)C(C)c1cc(C2CCc3ccc([C@H](C4CC4)[C@H](C)C(=O)O)cc3O2)ccc1-c1cc(OC)ncc1F` (single isomer, unassigned) [Example 244] had an EC50 of 0.43 nM.

The values above are taken from patent publication US10968193B2, “Antidiabetic bicyclic compounds” (Merck Sharp & Dohme Corp., priority 2014, dated 2021).
